Measured values reported in US10899709B2, “Novel-alkynyl-substituted 3-phenylpyrrolidine-2,4-diones and use thereof as herbicides” (BAYER CROPSCIENCE AKTIENGESELLSCHAFT, priority 2015, dated 2021).

Tests used:
Format in all cases: in vivo
[1] = tested on: Lolium multiflorum; test: Post-emergence herbicidal effect; conditions: visual assessment after about 3 weeks
Description: (§1) Seeds of monocotyledonous and dicotyledonous weed and crop plants are laid out in sandy loam in wood-fibre pots, covered with soil and cultivated in a greenhouse under good growth conditions. 2 to 3 weeks after sowing, the test plants are treated at the one-leaf stage. The compounds according to the invention, formulated in the form of wettable powders (WP) or as emulsion concentrates (EC), are then sprayed as aqueous suspension or emulsion at a water application rate of 600 to 800 l/ha (converted) with the addition of 0.2% of wetting agent onto the green parts of the plants. After the test plants have been left to stand in the greenhouse under optimal growth conditions for about 3 weeks, the action of the preparations is assessed visually in comparison to untreated controls (herbicidal action in percent (%): 100% activity=the plants have died, 0% activity=like control plants).

[2] = tested on: Alopecurus myosuroides; test: Post-emergence herbicidal effect; conditions: visual assessment after about 3 weeks
Description: as §1

[3] = tested on: Echinochloa crus-galli; test: Post-emergence herbicidal effect; conditions: visual assessment after about 3 weeks
Description: as §1

[4] = tested on: Setaria viridis; test: Post-emergence herbicidal effect; conditions: visual assessment after about 3 weeks
Description: as §1

[5] = tested on: Avena fatua; test: Post-emergence herbicidal effect; conditions: visual assessment after about 3 weeks
Description: as §1

[6] = tested on: Lolium multiflorum; test: Pre-emergence herbicidal effect; conditions: visual score after 3 weeks
Text: (§2) Seeds of monocotyledonous and dicotyledonous weed plants and crop plants are laid out in wood-fibre pots in sandy loam and covered with soil. The compounds according to the invention formulated in the form of wettable powders (WP) or as emulsion concentrates (EC) are then applied as aqueous suspension or emulsion at a water application rate of 600 to 800 l/ha (converted) with the addition of 0.2% wetting agent to the surface of the covering soil. After the treatment, the pots are placed in a greenhouse and kept under good growth conditions for the trial plants. The damage to the test plants is scored visually after a test period of 3 weeks by comparison with untreated controls (herbicidal activity in percent (%): 100% activity=the plants have died, 0% activity=like control plants).

[7] = tested on: Alopecurus myosuroides; test: Pre-emergence herbicidal effect; conditions: visual score after 3 weeks
Text: as §2

[8] = tested on: Echinochloa crus-galli; test: Pre-emergence herbicidal effect; conditions: visual score after 3 weeks
Text: as §2

[9] = tested on: Setaria viridis; test: Pre-emergence herbicidal effect; conditions: visual score after 3 weeks
Text: as §2

[10] = tested on: Avena fatua; test: Pre-emergence herbicidal effect; conditions: visual score after 3 weeks
Text: as §2

Structure (SMILES) | Post-emergence effectiveness LOLMU ([1]; 20 g/ha) [%] | Post-emergence effectiveness LOLMU ([1]; 80 g/ha) [%] | Post-emergence effectiveness ALOMY ([2]; 20 g/ha) [%] | Post-emergence effectiveness ALOMY ([2]; 80 g/ha) [%] | Post-emergence effectiveness ECHCG ([3]; 20 g/ha) [%] | Post-emergence effectiveness ECHCG ([3]; 80 g/ha) [%] | Post-emergence effectiveness SETVI ([4]; 20 g/ha) [%] | Post-emergence effectiveness SETVI ([4]; 80 g/ha) [%] | Post-emergence effectiveness AVEFA ([5]; 20 g/ha) [%] | Post-emergence effectiveness AVEFA ([5]; 80 g/ha) [%] | Pre-emergence effectiveness LOLMU ([6]; 80 g/ha) [%] | Pre-emergence effectiveness LOLMU ([6]; 320 g/ha) [%] | Pre-emergence effectiveness ALOMY ([7]; 80 g/ha) [%] | Pre-emergence effectiveness ALOMY ([7]; 320 g/ha) [%] | Pre-emergence effectiveness ECHCG ([8]; 80 g/ha) [%] | Pre-emergence effectiveness ECHCG ([8]; 320 g/ha) [%] | Pre-emergence effectiveness SETVI ([9]; 80 g/ha) [%] | Pre-emergence effectiveness SETVI ([9]; 320 g/ha) [%] | Pre-emergence effectiveness AVEFA ([10]; 80 g/ha) [%] | Pre-emergence effectiveness AVEFA ([10]; 320 g/ha) [%]
CC#Cc1cc(C)c(C2=C(O)C3(CCC(COC)C3)NC2=O)c(CC)c1 (stereo not shown) [Example I-10] | 100 | 100 | 100 | 100 | 100 | 100 | 90 | 100 | 100 | 100 | 100 | 100 | 90 | 100 | 100 | 100 | 80 | 100 | 80 | 100
CC#Cc1cc(C)c(C2=C(OS(C)(=O)=O)C3(CCC(COC)C3)NC2=O)c(CC)c1 (stereo not shown) [Example Ia-16] | – | – | – | – | – | – | – | – | – | – | – | 90 | 90 | 90 | 90 | 100 | 90 | 90 | – | –
CC#Cc1cc(C)c(C2=C(O)C3(CCC(COC)C3)NC2=O)c(CC)c1 (stereo not shown) [Example I-9] | 100 | 100 | 100 | 100 | 100 | 100 | 100 | 100 | 90 | 100 | 80 | 100 | 100 | 100 | 100 | 100 | 90 | 100 | – | 90
CCc1cc(C#CC2CC2)cc(C)c1C1=C(O)C2(CCC(COC)C2)NC1=O (stereo not shown) [Example I-12] | – | 90 | – | 90 | 100 | 100 | 100 | 100 | 80 | 80 | 100 | 100 | – | 100 | 90 | 100 | 90 | 100 | 100 | 80
CC#Cc1cc(CC)c(C2=C(OC(=O)C(C)C)C3(CCC(OCCOC)CC3)NC2=O)c(CC)c1 (stereo not shown) [Example Ia-13] | – | – | – | – | 80 | 100 | – | 80 | – | – | 100 | 100 | 100 | 100 | 100 | 100 | 100 | 100 | 80 | 100
COCC1CCC2(C1)NC(=O)C(c1c(C)cc(C#CC3CC3)cc1C)=C2O (mixture of isomers) [Example I-14] | 90 | 90 | – | 80 | 90 | 100 | 90 | 90 | – | – | – | 100 | – | 100 | 100 | 100 | 90 | 90 | – | 80
CC#Cc1cc(CC)c(C2=C(O)C3(CCC(CCOC)CC3)NC2=O)c(CC)c1 (stereo not shown) [Example I-1] | 90 | 90 | – | 90 | 100 | 100 | 90 | 100 | – | 90 | 100 | 100 | 80 | 100 | 100 | 100 | 100 | 100 | – | 80
COCC1CCC2(C1)NC(=O)C(c1c(C)cc(C#CC3CC3)cc1C)=C2O (stereo not shown) [Example I-13] | – | 90 | – | 80 | 90 | 90 | 90 | 90 | – | – | – | 90 | – | 100 | 100 | 100 | 90 | 100 | – | –
CC#Cc1cc(C)c(C2=C(OC(=O)C(C)C)C3(CCC(COC)C3)NC2=O)c(CC)c1 (stereo not shown) [Example Ia-9] | 90 | 90 | 100 | 100 | 100 | 100 | 100 | 100 | 90 | 90 | – | – | – | – | – | – | – | – | – | –
CCc1cc(C#CC2CC2)cc(C)c1C1=C(OC(=O)C(C)C)C2(CCC(COC)C2)NC1=O (stereo not shown) [Example Ia-11] | – | 90 | – | 90 | 100 | 100 | 80 | 90 | – | – | 100 | 100 | 100 | 100 | 100 | 100 | 100 | 100 | – | 80
CC#Cc1cc(C)c(C2=C(OC(=O)C(C)C)C3(CCC(COC)C3)NC2=O)c(CC)c1 (stereo not shown) [Example Ia-6] | 90 | 90 | – | 100 | 100 | 100 | – | 100 | – | – | 100 | 100 | 100 | 100 | 100 | 100 | 100 | 100 | 90 | 90
CC#Cc1cc(C)c(C2=C(OC(=O)C(C)C)C3(CCC(COC)C3)NC2=O)c(CC)c1 (stereo not shown) [Example Ia-7] | – | 100 | – | 100 | 90 | 100 | – | 80 | – | – | 100 | – | 100 | – | 100 | – | 100 | – | – | –
